Data from US7863408B2, “Body fluid compatible and biocompatible resin” (Asahi Kasei Kabushiki Kaisha, priority 2002, dated 2011).

Assays:
[1] = Solubility in physiological saline; format: physicochemical; details: for dissolution of 10 mg compound in 0.1 ml of physiological saline / dissolution ratio in terms of camptothecin: Example 162; for dissolution ratio in terms of camptothecin: physiological saline, 10 mg compound in 0.1 ml
Description: 10 mg of each of compounds (203) and (206) was precisely weighed and individually added to 0.1 ml of physiological saline.

Colon 26 tumor cells = assay: Antitumor assay, Colon 26; format: in vivo, mouse; details: Balb/C mice, 50 mg/kg in terms of paclitaxel
Description: Further, a control solution was prepared by dissolving paclitaxel as such in a mixture of ethanol, Cremophore EL (manufactured and sold by Sigma, U.S.A.) and physiological saline. Thus, two types of solutions, namely, a test sample solution and a control solution were obtained. Six female Balb/C mice (six weeks old) were divided into two groups, each consisting of three mice, and subsequently, a 4% suspension of Colon 26 tumor cells was intradermally transplanted to the flank of each of the mice. […] Each mouse of the other group of the two groups received administration of the control solution, wherein the control solution was administered in the same manner as in the case of the administration of the test sample solution (i.e., the dose of paclitaxel was 50 mg/kg), thereby obtaining a control group of mice. Separately, a group consisting of five female Balb/C mice (six weeks old), which were transplanted with Colon 26 tumor cells in the same manner as mentioned above, was provided. Each of the mice of such group received the administration of only physiological saline in the same manner as in the case of the administration of the test sample solution, to thereby obtain a non-treated group of mice. Each of the above-mentioned administration of the test sample solution, control solution and physiological saline was performed every 4 days, 7 times in total in the above-mentioned manner.
(§1) Evaluation was made of the antitumor activity in terms of the change (with the lapse of time) of the average tumor volume (%). The tumor volume was determined as follows. The major and minor diameters (a and b, respectively) (each in mm) of the tumor were externally measured, and the tumor volume (V) was obtained according to the following formula.
Further, a control solution was prepared by dissolving paclitaxel as such in a mixture of ethanol, Cremophore EL (manufactured and sold by Sigma, U.S.A.) and physiological saline. Thus, five types of solutions, namely, four types of test sample solutions and one control solution were obtained. Twenty-five female Balb/C mice (six weeks old) were divided into five groups, each consisting of five mice, and subsequently, a 4% suspension of Colon 26 tumor cells was intradermally transplanted to the flank of each of the mice. After two days from the transplantation, four groups of the five groups of mice respectively received the administration of the four test sample solutions obtained above, wherein the dose of the compound was 50 mg/kg in terms of paclitaxel. Each mouse of the other group of the five groups received administration of the control solution, wherein the control solution was administered in the same manner as in the case of the administration of the test sample solution (i.e., the dose of paclitaxel was 50 mg/kg), thereby obtaining a control group of mice. Separately, a group consisting of nine female Balb/C mice (six weeks old), which were transplanted with Colon 26 tumor cells in the same manner as mentioned above, was provided. Each of the mice of such group received the administration of only physiological saline in the same manner as in the case of the administration of the test sample solution, to thereby obtain a non-treated group of mice. Each of the above-mentioned administration of the test sample solution, control solution and physiological saline was performed every 7 days, 4 times in total in the above mentioned manner.
as §1, with “volume” for “volume (V)”

B16 melanoma cells = details: Example 149; C57BL/6 mice; 50 mg/kg in terms of paclitaxel, tail-vein injection; six days after administration
Description: Further, a control solution was prepared by dissolving paclitaxel as such in a mixture of ethanol, Cremophore EL (manufactured and sold by Sigma, U.S.A.) and physiological saline. Thus, two types of solutions, namely, a test sample solution and a control solution were obtained. Twenty-one female C57BL/6 mice (six weeks old) were divided into three groups, each consisting of seven mice, and subsequently, B16 melanoma cells were intradermally transplanted to the groin of each of the mice (5×10^6 cells per mouse). […] Each mouse of the other one group of the three groups received the administration of the control solution, wherein the control solution was administered in substantially the same manner as in the above-mentioned administration of the test sample solution, except that the dose of paclitaxel was 50 mg/kg, thereby obtaining a control group of mice. Separately, a group consisting of thirteen female C57BL/6 mice (six weeks old), which were transplanted with B16 melanoma cells in the same manner as mentioned above, was provided. Each of the mice of such group received the administration of physiological saline, to thereby obtain a non-treated group of mice.

[2] = Example 151, every 7 days, 4 times

Compound: CC(=O)O[C@H]1C(=O)[C@@]2(C)[C@H]([C@H](OC(=O)c3ccccc3)[C@]3(O)C[C@H](OC(=O)[C@H](O)[C@@H](NC(=O)c4ccccc4)c4ccccc4)C(C)=C1C3(C)C)[C@]1(OC(C)=O)CO[C@@H]1C[C@@H]2O [paclitaxel, reference compound]
- dissolution of 1 mg in 10 ml of physiological saline ([1]; Example 145): not able to be completely dissolved
- order of the magnitudes of the antitumor activity (Colon 26 tumor cells; [2]): (177)/(179)>(181)>(183)/paclitaxel

Compound: carboxymethylated polyether-2′-Ala-paclitaxel [(179)]
- antitumor activity (average tumor volume with time) compared to paclitaxel as such (Colon 26 tumor cells; [2]): significantly excellent
- order of the magnitudes of the antitumor activity (Colon 26 tumor cells; [2]): (177)/(179)>(181)>(183)/paclitaxel

Compound: carboxymethylated polyether-2′-Gly-Gly-Phe-Gly-paclitaxel [Compound (197)]
- antitumor activity (relative average tumor volume) compared to paclitaxel as such (B16 melanoma cells): significantly excellent
- antitumor activity (average tumor volume with time) compared to paclitaxel as such (Colon 26 tumor cells; Example 150, every 4 days, 7 times): significantly excellent

Compound: carboxymethylated polyether-2′-Gly-paclitaxel [Compound (177)]
- antitumor activity (average tumor volume with time) compared to paclitaxel as such (Colon 26 tumor cells; [2]): significantly excellent
- order of the magnitudes of the antitumor activity (Colon 26 tumor cells; [2]): (177)/(179)>(181)>(183)/paclitaxel

Compound: carboxymethylated polyether-2′-Ile-paclitaxel [(183)]
- order of the magnitudes of the antitumor activity (Colon 26 tumor cells; [2]): (177)/(179)>(181)>(183)/paclitaxel

Compound: carboxymethylated polyether-2′-Leu-paclitaxel [(181)]
- order of the magnitudes of the antitumor activity (Colon 26 tumor cells; [2]): (177)/(179)>(181)>(183)/paclitaxel

Compound: carboxymethylated polyether-20-Gly-Gly-Phe-Gly-camptothecin [(206)]
- dissolution of 10 mg compound in 0.1 ml of physiological saline [1]: completely dissolved
- dissolution ratio in terms of camptothecin [1]: 4.5 mg/mL

Compound: carboxymethylated polyether-20-Gly-camptothecin [Compound (203)]
- dissolution of 10 mg compound in 0.1 ml of physiological saline [1]: completely dissolved
- dissolution ratio in terms of camptothecin [1]: 3.5 mg/mL
